Experiment in all cases: Minimum inhibitory concentration (MIC) by agar dilution
Common to all, as to assay type: cell-based
A general note: Agar dilution tests growth on a series of plates holding different concentrations.

For one assay, the system named is Escherichia coli. The following applies: Escherichia coli, 20 h. The protocol: (§1) The antibacterial activity of the compounds of Formula IC was determined by using standard testing procedures such as the determination of minimum inhibitory concentration (MIC) by agar dilution as described in "Methods for Dilution Antimicrobial Susceptibility Tests for Bacteria That Grow Aerobically" (MFT) published January 1983 by the National Committee for Clinical Laboratory Standards, 771 East Lancaster Avenue, Villanova, Pa. 19084, USA. Briefly, MIC values are determined in unsupplemented Mueller Hinton Agar (MHA). The compounds tested are diluted serially into molten MHA at 47° C. The agar is poured into petri dishes and allowed to harden. The various bacteria used for testing are grown overnight on MHA at 35° C. and transferred to Trypticase soy broth (TSB) until a turbidity of 0.5 McFarland standard is obtained. The bacteria are diluted one to 20 in TSB and inoculated on the plates (1 μl using a Steers replicator).
as §1, with “Compounds of this invention can also be tested for in vitro antimicrobial” for “The antibacterial”, “activity” for “activity of the compounds of Formula IC was determined by”, “Jan.” for “January”, “Penna.” for “Pa.”, “(1μl” for “(1 μl”, “replicator). […] The MIC test results of selected of Formula B compounds of this invention are found in Tables B2-B9.” for “replicator).”

Another assay has as its system Citerobacter freundii. The following applies: 20 h, read-out: MINIMUM INHIBITORY CONCENTRATION
As to the method: as §1
as §1, with “Compounds of this invention can also be tested for in vitro antimicrobial” for “The antibacterial”, “activity” for “activity of the compounds of Formula IC was determined by”, “Jan.” for “January”, “Penna.” for “Pa.”, “(1μl” for “(1 μl”, “replicator). […] The MIC test results of selected of Formula B compounds of this invention are found in Tables B2-B9.” for “replicator).”

The subject of a further assay is Streptococcus pneumoniae. The following applies: Streptococcus pneumoniae, 20 h, read-out: MINIMUM INHIBITORY CONCENTRATION, Cult No. 41, MHA. As to the method: as §1
as §1, with “Compounds of this invention can also be tested for in vitro antimicrobial” for “The antibacterial”, “activity” for “activity of the compounds of Formula IC was determined by”, “Jan.” for “January”, “Penna.” for “Pa.”, “(1μl” for “(1 μl”, “replicator). […] The MIC test results of selected of Formula B compounds of this invention are found in Tables B2-B9.” for “replicator).”

In a further assay the test system is Streptococcus pyogenes. The following applies: Streptococcus pyogenes, 20 h, read-out: MINIMUM INHIBITORY CONCENTRATION, Cult No. 152, MHA. The protocol:
as §1
as §1, with “Compounds of this invention can also be tested for in vitro antimicrobial” for “The antibacterial”, “activity” for “activity of the compounds of Formula IC was determined by”, “Jan.” for “January”, “Penna.” for “Pa.”, “(1μl” for “(1 μl”, “replicator). […] The MIC test results of selected of Formula B compounds of this invention are found in Tables B2-B9.” for “replicator).”

A further assay has as its system Serratia marcescens. The following applies: 20 h, read-out: MINIMUM INHIBITORY CONCENTRATION
The protocol: as §1
as §1, with “Compounds of this invention can also be tested for in vitro antimicrobial” for “The antibacterial”, “activity” for “activity of the compounds of Formula IC was determined by”, “Jan.” for “January”, “Penna.” for “Pa.”, “(1μl” for “(1 μl”, “replicator). […] The MIC test results of selected of Formula B compounds of this invention are found in Tables B2-B9.” for “replicator).”

The subject of assay [1] is Staphylococcus epidermidis. The following applies: 20 h, read-out: MINIMUM INHIBITORY CONCENTRATION
The protocol: as §1
as §1, with “Compounds of this invention can also be tested for in vitro antimicrobial” for “The antibacterial”, “activity” for “activity of the compounds of Formula IC was determined by”, “Jan.” for “January”, “Penna.” for “Pa.”, “(1μl” for “(1 μl”, “replicator). […] The MIC test results of selected of Formula B compounds of this invention are found in Tables B2-B9.” for “replicator).”

A further assay deals with Pseudomonas aeruginosa. The following applies: Pseudomonas aeruginosa, 20 h. The protocol: as §1
as §1, with “Compounds of this invention can also be tested for in vitro antimicrobial” for “The antibacterial”, “activity” for “activity of the compounds of Formula IC was determined by”, “Jan.” for “January”, “Penna.” for “Pa.”, “(1μl” for “(1 μl”, “replicator). […] The MIC test results of selected of Formula B compounds of this invention are found in Tables B2-B9.” for “replicator).”

The test system of another assay is Streptococcus faecalis. The note with it: Enterococcus faecalis, 20 h, read-out: MINIMUM INHIBITORY CONCENTRATION
As to the method:
as §1
as §1, with “Compounds of this invention can also be tested for in vitro antimicrobial” for “The antibacterial”, “activity” for “activity of the compounds of Formula IC was determined by”, “Jan.” for “January”, “Penna.” for “Pa.”, “(1μl” for “(1 μl”, “replicator). […] The MIC test results of selected of Formula B compounds of this invention are found in Tables B2-B9.” for “replicator).”

For a further assay, the system named is Staphylococcus aureus. The following applies: Staphylococcus aureus, 20 h. As to the method:
as §1
as §1, with “Compounds of this invention can also be tested for in vitro antimicrobial” for “The antibacterial”, “activity” for “activity of the compounds of Formula IC was determined by”, “Jan.” for “January”, “Penna.” for “Pa.”, “(1μl” for “(1 μl”, “replicator). […] The MIC test results of selected of Formula B compounds of this invention are found in Tables B2-B9.” for “replicator).”

Assay [2] deals with Acinetobacter calcoaceticus. The note with it: Acinetobacter calcoaceticus, 20 h, read-out: MINIMUM INHIBITORY CONCENTRATION, Cult No. 12170, MHA. As to the method:
as §1
as §1, with “Compounds of this invention can also be tested for in vitro antimicrobial” for “The antibacterial”, “activity” for “activity of the compounds of Formula IC was determined by”, “Jan.” for “January”, “Penna.” for “Pa.”, “(1μl” for “(1 μl”, “replicator). […] The MIC test results of selected of Formula B compounds of this invention are found in Tables B2-B9.” for “replicator).”

The next assay relates to Proteus penneri. The following applies: Proteus penneri, 20 h, read-out: MINIMUM INHIBITORY CONCENTRATION, Cult No. 9679, MHA. The protocol:
as §1
as §1, with “Compounds of this invention can also be tested for in vitro antimicrobial” for “The antibacterial”, “activity” for “activity of the compounds of Formula IC was determined by”, “Jan.” for “January”, “Penna.” for “Pa.”, “(1μl” for “(1 μl”, “replicator). […] The MIC test results of selected of Formula B compounds of this invention are found in Tables B2-B9.” for “replicator).”

In another assay the test system is Klebsiella pneumoniae. The following applies: 20 h, read-out: MINIMUM INHIBITORY CONCENTRATION
The protocol: as §1
as §1, with “Compounds of this invention can also be tested for in vitro antimicrobial” for “The antibacterial”, “activity” for “activity of the compounds of Formula IC was determined by”, “Jan.” for “January”, “Penna.” for “Pa.”, “(1μl” for “(1 μl”, “replicator). […] The MIC test results of selected of Formula B compounds of this invention are found in Tables B2-B9.” for “replicator).”

A further assay has as its system Enterobacter cloacae. The note with it: 20 h, read-out: MINIMUM INHIBITORY CONCENTRATION
As to the method: Briefly, MIC values are determined in unsupplemented Mueller Hinton Agar (MHA). The compounds tested are diluted serially into molten MHA at 47° C. The agar is poured into petri dishes and allowed to harden. The various bacteria used for testing are grown overnight on MHA at 35° C. and transferred to Trypticase soy broth (TSB) until a turbidity of 0.5 McFarland standard is obtained. The bacteria are diluted one to 20 in TSB and inoculated on the plates (1 μl using a Steers replicator).
as §1, with “Compounds of this invention can also be tested for in vitro antimicrobial” for “The antibacterial”, “activity” for “activity of the compounds of Formula IC was determined by”, “Jan. […]” for “January 1983 by the National Committee for Clinical Laboratory Standards, 771 East Lancaster Avenue, Villanova, Pa. 19084, USA.”, “(1μl” for “(1 μl”

Where [3] appears, read: read-out: MINIMUM INHIBITORY CONCENTRATION, Cult No. 6674, MHA.
The mark [4] stands for this setting: read-out: MINIMUM INHIBITORY CONCENTRATION, Cult No. 9451, MHA.
Setting [5] is: read-out: MINIMUM INHIBITORY CONCENTRATION, Cult No. 9855, MHA.
[6] abbreviates: read-out: MINIMUM INHIBITORY CONCENTRATION, Cult No. 9952, MHA.
Setting [7] is: read-out: MINIMUM INHIBITORY CONCENTRATION, Cult No. 6676, MHA.
[8] abbreviates: read-out: MINIMUM INHIBITORY CONCENTRATION, Cult No. 9191, MHA.
Setting [9] is: read-out: MINIMUM INHIBITORY CONCENTRATION, Cult No. 12120, MHA.
The mark [10] stands for this setting: read-out: MINIMUM INHIBITORY CONCENTRATION, Cult No. 6685, MHA.
Setting [11] is: read-out: MINIMUM INHIBITORY CONCENTRATION, Cult No. 9213, MHA.
[12] abbreviates: read-out: MINIMUM INHIBITORY CONCENTRATION, Cult No. 9218, MHA.
Where [13] appears, read: read-out: MINIMUM INHIBITORY CONCENTRATION, Cult No. 9271, MHA.

Values after ≈ are worked out from the molar mass of the structure shown. Read-outs that look alike come from different tables or passages of the source.

With `NC1CCN(c2nc3c(cc2F)c(=O)c(C(=O)O)cn3C23CC(C2)C3)C1` (racemic) [No. 36, 7-(3-amino-1-pyrrolidinyl)-1-(bicyclo[1.1.1]pent-1-yl)-1,4-dihydro-6-fluoro-4-oxo-1,8-naphthyridine-3-carboxylic acid], the MIC with Escherichia coli (setting [3]) was determined as 0.03 µg/mL (≈ 0.0837 µM); with Escherichia coli (setting [4]), 0.03 µg/mL (≈ 0.0837 µM); in the assay with Escherichia coli (setting [5]), 0.06 µg/mL (≈ 0.167 µM); in the assay with Escherichia coli (setting [6]), 0.03 µg/mL (≈ 0.0837 µM); in the assay with Citerobacter freundii, 0.03 µg/mL (≈ 0.0837 µM); with Streptococcus pneumoniae, 0.5 µg/mL (≈ 1.4 µM). Also, the MIC was found to be 0.25 µg/mL (≈ 0.698 µM) in the assay on Streptococcus pyogenes; 0.125 µg/mL (≈ 0.349 µM) in the assay with Serratia marcescens; 0.06 µg/mL (≈ 0.167 µM) in assay [1]; 1 µg/mL (≈ 2.79 µM) in the assay with Pseudomonas aeruginosa (setting [7]); 0.5 µg/mL (≈ 1.4 µM) in the assay with Pseudomonas aeruginosa (setting [8]); 0.25 µg/mL (≈ 0.698 µM) with Pseudomonas aeruginosa (setting [9]). In addition, the MIC with Streptococcus faecalis was 0.5 µg/mL (≈ 1.4 µM); with Staphylococcus aureus (setting [10]), 0.125 µg/mL (≈ 0.349 µM); in the assay with Staphylococcus aureus (setting [11]), 0.125 µg/mL (≈ 0.349 µM); in the assay on Staphylococcus aureus (setting [12]) it was 0.125 µg/mL (≈ 0.349 µM); in the assay on Staphylococcus aureus (setting [13]) it was 0.125 µg/mL (≈ 0.349 µM); in assay [2], 0.125 µg/mL (≈ 0.349 µM). The MIC in the assay with Proteus penneri came to 0.25 µg/mL (≈ 0.698 µM); in the assay with Klebsiella pneumoniae it was 0.06 µg/mL (≈ 0.167 µM); in the assay with Enterobacter cloacae it was 0.03 µg/mL (≈ 0.0837 µM).

Consider `NC1CCN(c2c(F)cc3c(=O)c(C(=O)O)cn(C45CC(C4)C5)c3c2F)C1` (racemic) [No. 84, 7-(3-amino-1-pyrrolidinyl)-1-(bicyclo[1.1.1]pent-1-yl)-1,4-dihydro-6,8-difluoro-4-oxo-3-quinolinecarboxylic acid], for which the MIC stood at 0.03 µg/mL (≈ 0.0799 µM) in the assay with Escherichia coli (setting [3]); 0.06 µg/mL (≈ 0.16 µM) with Escherichia coli (setting [4]); 0.06 µg/mL (≈ 0.16 µM) in the assay on Escherichia coli (setting [5]); 0.03 µg/mL (≈ 0.0799 µM) with Escherichia coli (setting [6]); 0.36 µg/mL (≈ 0.959 µM) in the assay with Citerobacter freundii; 0.5 µg/mL (≈ 1.33 µM) in the assay with Streptococcus pneumoniae. The MIC in the assay on Streptococcus pyogenes turned out to be 0.25 µg/mL (≈ 0.666 µM); in the assay on Serratia marcescens, 0.125 µg/mL (≈ 0.333 µM); in assay [1], 0.125 µg/mL (≈ 0.333 µM); with Pseudomonas aeruginosa (setting [7]), 1 µg/mL (≈ 2.66 µM); with Pseudomonas aeruginosa (setting [8]), 0.5 µg/mL (≈ 1.33 µM); in the assay with Pseudomonas aeruginosa (setting [9]) it was 0.5 µg/mL (≈ 1.33 µM). For the same compound, the MIC was 0.5 µg/mL (≈ 1.33 µM) with Streptococcus faecalis; 0.06 µg/mL (≈ 0.16 µM) in the assay on Staphylococcus aureus (setting [10]); 0.125 µg/mL (≈ 0.333 µM) with Staphylococcus aureus (setting [11]); 0.125 µg/mL (≈ 0.333 µM) with Staphylococcus aureus (setting [12]); 0.125 µg/mL (≈ 0.333 µM) with Staphylococcus aureus (setting [13]); 0.125 µg/mL (≈ 0.333 µM) in assay [2]. The figures for the MIC in the assay on Proteus penneri, in the assay with Klebsiella pneumoniae and with Enterobacter cloacae were 0.25 µg/mL (≈ 0.666 µM), 0.06 µg/mL (≈ 0.16 µM) and 0.06 µg/mL (≈ 0.16 µM), respectively.
